In ChEMBL document CHEMBL4814007, “Structure-based discovery of SIAIS001 as an oral bioavailability ALK degrader constructed from Alectinib” (Eur J Med Chem, 2021):
Calls of active or inactive are those of the source. The rule behind the calls is not given here.

How the values were obtained:
SR [1] = test: Antiproliferative activity against ALK positive human SR cells; assay type: functional, cell-based
SR [2] = test: Induction of cell cycle arrest in human SR cells assessed as increase in accumulation at G1/S phase at 100 nM incubated for 24 hrs; assay type: functional, cell-based
SR [3] = test: Induction of cell cycle arrest in human SR cells assessed as increase in accumulation at S phase at 100 nM incubated for 24 hrs; assay type: functional, cell-based
[4] = biological target: T1, Protein cereblon/ALK tyrosine kinase receptor (Homo sapiens, UniProt Q9UM73+Q96SW2); test: Protac activity at CRBN/ALK in human SR cells assessed as protein abundance at 0.05 nM by Western blot analysis (reference value: 1); assay type: cell-based
T1 sequence (Q96SW2 whole entry partner): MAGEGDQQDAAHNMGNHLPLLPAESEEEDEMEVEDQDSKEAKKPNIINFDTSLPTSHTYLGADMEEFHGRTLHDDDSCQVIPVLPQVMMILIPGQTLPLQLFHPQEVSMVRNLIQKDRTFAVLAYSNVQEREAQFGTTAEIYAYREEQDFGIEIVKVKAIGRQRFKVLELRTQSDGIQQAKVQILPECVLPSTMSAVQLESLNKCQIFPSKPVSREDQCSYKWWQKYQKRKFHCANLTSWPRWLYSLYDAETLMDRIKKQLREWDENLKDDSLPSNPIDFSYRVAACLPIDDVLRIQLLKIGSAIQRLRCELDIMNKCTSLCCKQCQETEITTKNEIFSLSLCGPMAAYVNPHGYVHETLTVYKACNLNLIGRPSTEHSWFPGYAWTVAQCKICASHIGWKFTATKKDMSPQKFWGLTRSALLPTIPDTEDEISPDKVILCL
T1 sequence (Q9UM73 19-1620 limits assumed): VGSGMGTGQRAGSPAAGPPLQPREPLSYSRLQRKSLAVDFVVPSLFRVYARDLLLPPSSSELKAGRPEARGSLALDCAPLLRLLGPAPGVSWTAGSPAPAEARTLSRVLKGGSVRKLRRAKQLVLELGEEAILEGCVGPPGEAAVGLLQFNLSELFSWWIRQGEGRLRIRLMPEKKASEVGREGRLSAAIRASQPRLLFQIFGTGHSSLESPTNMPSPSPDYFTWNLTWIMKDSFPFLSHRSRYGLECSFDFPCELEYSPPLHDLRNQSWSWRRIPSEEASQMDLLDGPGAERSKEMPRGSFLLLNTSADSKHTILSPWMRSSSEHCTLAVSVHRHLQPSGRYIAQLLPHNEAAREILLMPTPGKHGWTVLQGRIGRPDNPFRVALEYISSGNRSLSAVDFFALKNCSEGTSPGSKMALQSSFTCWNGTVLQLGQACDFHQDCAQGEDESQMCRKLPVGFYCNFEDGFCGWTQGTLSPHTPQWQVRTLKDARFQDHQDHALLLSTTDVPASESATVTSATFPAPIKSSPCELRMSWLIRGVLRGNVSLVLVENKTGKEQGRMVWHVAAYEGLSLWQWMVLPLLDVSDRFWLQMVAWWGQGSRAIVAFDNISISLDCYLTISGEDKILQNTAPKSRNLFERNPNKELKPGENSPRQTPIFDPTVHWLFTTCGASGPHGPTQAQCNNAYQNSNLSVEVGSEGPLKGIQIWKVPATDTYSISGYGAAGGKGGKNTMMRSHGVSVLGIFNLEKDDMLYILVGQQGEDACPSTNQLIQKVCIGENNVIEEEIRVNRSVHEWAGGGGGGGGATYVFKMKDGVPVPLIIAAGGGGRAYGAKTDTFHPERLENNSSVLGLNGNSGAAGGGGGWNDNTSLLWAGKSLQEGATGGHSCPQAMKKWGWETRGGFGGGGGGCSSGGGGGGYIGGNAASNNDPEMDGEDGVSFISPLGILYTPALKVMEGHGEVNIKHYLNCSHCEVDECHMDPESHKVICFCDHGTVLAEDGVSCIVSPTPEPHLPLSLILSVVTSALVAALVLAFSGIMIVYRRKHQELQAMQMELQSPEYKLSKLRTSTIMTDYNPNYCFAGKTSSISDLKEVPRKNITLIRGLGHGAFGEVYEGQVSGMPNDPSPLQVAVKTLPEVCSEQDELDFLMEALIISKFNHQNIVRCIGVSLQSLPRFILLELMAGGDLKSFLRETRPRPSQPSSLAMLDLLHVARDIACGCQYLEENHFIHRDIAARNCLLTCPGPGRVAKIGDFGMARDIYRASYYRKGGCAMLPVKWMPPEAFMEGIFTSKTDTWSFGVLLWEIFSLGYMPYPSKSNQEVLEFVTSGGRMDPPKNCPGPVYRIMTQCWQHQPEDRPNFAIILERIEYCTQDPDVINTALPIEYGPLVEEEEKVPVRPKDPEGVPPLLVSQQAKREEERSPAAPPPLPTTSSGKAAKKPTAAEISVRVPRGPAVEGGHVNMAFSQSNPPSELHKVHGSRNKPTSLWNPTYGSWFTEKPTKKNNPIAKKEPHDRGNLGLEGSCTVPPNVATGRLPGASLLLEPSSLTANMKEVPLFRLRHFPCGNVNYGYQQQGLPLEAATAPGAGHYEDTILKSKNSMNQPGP

[5] = biological target: T1, Protein cereblon/ALK tyrosine kinase receptor; test: Protac activity at CRBN/ALK in human SR cells assessed as protein abundance at 50 nM by Western blot analysis (reference value: 1); assay type: cell-based
[6] = biological target: T1, Protein cereblon/ALK tyrosine kinase receptor; test: Protac activity at CRBN/ALK in human SR cells assessed as protein abundance at 500 nM by Western blot analysis (reference value: 1); assay type: cell-based
[7] = biological target: T1, Protein cereblon/ALK tyrosine kinase receptor; test: Protac activity at CRBN/ALK in human SR cells assessed as protein abundance at 5 nM by Western blot analysis (reference value: 1); assay type: cell-based
[8] = biological target: T1, Protein cereblon/ALK tyrosine kinase receptor; test: Protac activity at CRBN/ALK in human SR cells assessed as increase in ALK degradation at 500 nM by Western blot analysis; assay type: cell-based
[9] = biological target: T1, Protein cereblon/ALK tyrosine kinase receptor; test: Protac activity at CRBN/ALK in human SR cells assessed as protein abundance at 0.5 nM by Western blot analysis (reference value: 1); assay type: cell-based
[10] = biological target: von Hippel-Lindau disease tumor suppressor/ALK tyrosine kinase receptor (Homo sapiens) (UniProt Q9UM73+P40337); test: Protac activity at VHL1/ALK in human SR cells assessed as increase in ALK degradation at 500 nM by Western blot analysis; assay type: cell-based
von Hippel-Lindau disease tumor suppressor/ALK tyrosine kinase receptor (Homo sapiens), sequence (P40337 whole entry partner): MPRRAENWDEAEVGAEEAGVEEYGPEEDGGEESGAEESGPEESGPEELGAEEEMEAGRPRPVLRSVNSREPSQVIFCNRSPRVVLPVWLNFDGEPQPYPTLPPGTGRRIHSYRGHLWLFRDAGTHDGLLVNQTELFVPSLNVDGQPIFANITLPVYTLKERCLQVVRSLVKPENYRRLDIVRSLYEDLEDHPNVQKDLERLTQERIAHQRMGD
von Hippel-Lindau disease tumor suppressor/ALK tyrosine kinase receptor (Homo sapiens), sequence (Q9UM73 19-1620 limits assumed): as the sequence (Q9UM73 19-1620 limits assumed) above

| SMILES | IC50 (SR [1]) [nM] | further results |
| --- | --- | --- |
| Cc1cc(Nc2ncc(Cl)c(Nc3ccccc3S(=O)(=O)C(C)C)n2)c(OC(C)C)cc1C1CCN(C(=O)NCCOCCOCCOCCOCCOCCNC(=O)CNc2cccc3c2C(=O)N(C2CCC(=O)NC2=O)C3=O)CC1 (configuration not stated) | 13.8 |  |
| CCc1cc2c(cc1N1CCC(NC(=O)CCCNc3cccc4c3C(=O)N(C3CCC(=O)NC3=O)C4=O)CC1)C(C)(C)c1[nH]c3cc(C#N)ccc3c1C2=O (configuration not stated) | 8.2 |  |
| CCc1cc2c(cc1N1CCN(C(=O)CCCCCNc3cccc4c3C(=O)N(C3CCC(=O)NC3=O)C4=O)CC1)C(C)(C)c1[nH]c3cc(C#N)ccc3c1C2=O (configuration not stated) | 15.1 |  |
| Cc1cc(Nc2ncc(Cl)c(Nc3ccccc3S(=O)(=O)C(C)C)n2)c(OC(C)C)cc1C1CCN(C(=O)NCCNC(=O)CNc2cccc3c2C(=O)N(C2CCC(=O)NC2=O)C3=O)CC1 (configuration not stated) | 8.5 |  |
| CCc1cc2c(cc1N1CCC(N3CCN(C(=O)CCCCCCNc4cccc5c4CN(C4CCC(=O)NC4=O)C5=O)CC3)CC1)C(C)(C)c1[nH]c3cc(C#N)ccc3c1C2=O (configuration not stated) | 9.2 |  |
| CCc1cc2c(cc1N1CCC(N3CCOCC3)CC1)C(C)(C)c1[nH]c3cc(C#N)ccc3c1C2=O [ALECTINIB] | 3.4 | Activity (SR [2]): Active; Activity (SR [3]): Active |
| CCc1cc2c(cc1N1CCC(N3CCN(CCCCCCCC#Cc4cccc5c4CN(C4CCC(=O)NC4=O)C5=O)CC3)CC1)C(C)(C)c1[nH]c3cc(C#N)ccc3c1C2=O (configuration not stated) | 3.3 |  |
| CCc1cc2c(cc1N1CCC(N3CCN(C(=O)CCCCCNc4cccc5c4CN(C4CCC(=O)NC4=O)C5=O)CC3)CC1)C(C)(C)c1[nH]c3cc(C#N)ccc3c1C2=O (configuration not stated) | 4 |  |
| CCc1cc2c(cc1N1CCC(NC(=O)CCOCCOCCOCCOCCNc3cccc4c3C(=O)N(C3CCC(=O)NC3=O)C4=O)CC1)C(C)(C)c1[nH]c3cc(C#N)ccc3c1C2=O (configuration not stated) | 5.9 |  |
| CCc1cc2c(cc1N1CCC(NC(=O)CCCCCNc3cccc4c3C(=O)N(C3CCC(=O)NC3=O)C4=O)CC1)C(C)(C)c1[nH]c3cc(C#N)ccc3c1C2=O (configuration not stated) | 3.8 |  |
| COc1cc(N2CCC(NC(=O)CCCCCCCCCC(=O)N[C@@H](C(=O)N3C[C@H](O)C[C@H]3C(=O)NCc3ccc(-c4scnc4C)cc3)C(C)(C)C)CC2)ccc1Nc1ncc(Cl)c(Nc2ccccc2P(C)(C)=O)n1 | 1.1 |  |
| Cc1cc(Nc2ncc(Cl)c(Nc3ccccc3S(=O)(=O)C(C)C)n2)c(OC(C)C)cc1C1CCN(CCOCCOCCNC(=O)CNc2cccc3c2C(=O)N(C2CCC(=O)NC2=O)C3=O)CC1 (configuration not stated) | 5.9 |  |
| CCc1cc2c(cc1N1CCC(NC(=O)CCOCCOCCNc3cccc4c3C(=O)N(C3CCC(=O)NC3=O)C4=O)CC1)C(C)(C)c1[nH]c3cc(C#N)ccc3c1C2=O (configuration not stated) | 12 |  |
| CCc1cc2c(cc1N1CCC(N3CCN(CCCCC#Cc4cccc5c4CN(C4CCC(=O)NC4=O)C5=O)CC3)CC1)C(C)(C)c1[nH]c3cc(C#N)ccc3c1C2=O (configuration not stated) | 1.2 |  |
| CCc1cc2c(cc1N1CCN(C(=O)CCOCCOCCNc3cccc4c3C(=O)N(C3CCC(=O)NC3=O)C4=O)CC1)C(C)(C)c1[nH]c3cc(C#N)ccc3c1C2=O (configuration not stated) | 30.8 |  |
| CCc1cc2c(cc1N1CCC(N3CCN(CCCCCCC#Cc4cccc5c4CN(C4CCC(=O)NC4=O)C5=O)CC3)CC1)C(C)(C)c1[nH]c3cc(C#N)ccc3c1C2=O (configuration not stated) | 1.6 |  |
| CCc1cc2c(cc1N1CCN(C(=O)CNc3cccc4c3C(=O)N(C3CCC(=O)NC3=O)C4=O)CC1)C(C)(C)c1[nH]c3cc(C#N)ccc3c1C2=O (configuration not stated) | 3.2 | Activity [4]: 1.17; Activity [5]: 0.66; Activity [6]: 0.43; Activity [7]: 0.89; Activity [8]: Active; Activity [9]: 1.12 |
| CCc1cc2c(cc1N1CCC(N3CCN(C(=O)CNc4cccc5c4C(=O)N(C4CCC(=O)NC4=O)C5=O)CC3)CC1)C(C)(C)c1[nH]c3cc(C#N)ccc3c1C2=O (configuration not stated) | 4.1 | Activity [10]: Active |
